Data taken from patent publication US20230346956A1, “COMPLEX OF 7-DEACETYLFORSKOLIN AND PVP” (SciPharm S.à.r.l, priority 2020, published 2023).
Values after ≈ are worked out from the molar mass of the structure shown.

How the values were obtained:
[1] = tested on: adenylyl cyclase (HEK293 cells stably expressing IP receptor); assay: cAMP assay, HEK293 cells with IP receptor; format: cell-based, human; details: 30 μM forskolin in DMSO, 100 μM 7-DAFSK in water or as PVP K12 complex in water, with 30 μM treprostinil, treprostinil alone = control, 30 min, room temperature
Experimental: (§1) A cAMP assay was performed using HEK293 cells (human embryonic kidney cells, 1970) with the prostaglandin receptors EP2 or EP4, or the prostacyclin receptor IP. HEK293 cells were incubated with FCS and a radioligand ([^3H] adenine). The formation of cAMP ([^3H] cAMP) was monitored experimentally.
(§2) Day 1: HEK293 cells stably expressing either EP2, EP4, or IP receptors were grown on a 6-well plate in 2 mL DMEM medium containing 10% FCS and 2 μCi [^3H]-adenine and incubated for 16 hours.
(§3) Day 2: Cells were stimulated with 30 μM treprostinil alone or in combination with […] forskolin in DMSO, 100 μM 7-DAFSK in water, or 100 μM 7-DAFSK in 7-DAFSK-PVP K12 complex in water (in fresh medium for 30 minutes at room temperature). Cells were then lysed with 2.5% perchloric acid (PCA) for 30 minutes on ice. The PCA extract was neutralized with KOH and [^3H]cAMP was separated by sequential chromatography using DOWEX and alumina columns. Radioactivity was then measured using a scintillator.
(§4) An aliquot of PCA extract from each well was used to measure radioactivity.

[2] = tested on: adenylyl cyclase (HEK293 cells stably expressing EP4 receptor); assay: cAMP assay, HEK293 cells with EP4 receptor; format: cell-based, human; details: 30 μM forskolin in DMSO, 100 μM 7-DAFSK in water or as PVP K12 complex in water, with 30 μM treprostinil, treprostinil alone = control, 30 min, room temperature
Experimental: as §1, §2, §3, §4

[3] = Determination of water solubility (excess complex in water, filtration, HPLC); format: physicochemical; details: content of active in filtrate by HPLC
Experimental: For the solubility tests, the respective complex dried by means of rotary evaporator was used. A defined amount of water is added and then complex is added until an excess of 7-DAFSK-PVP is present. The supersaturated solution is sonicated, stirred and slightly heated (water bath 40° C.). The suspension is then filtered (0.45 μm filter) and the content of 7-DAFSK in the filtrate is determined by HPLC.

[4] = literature/background value; cited from earlier work
[5] = tested on: adenylyl cyclase (HEK293 cells stably expressing EP2 receptor); assay: cAMP assay, HEK293 cells with EP2 receptor; format: cell-based, human; details: 30 μM forskolin in DMSO, 100 μM 7-DAFSK in water or as PVP K12 complex in water, with 30 μM treprostinil, treprostinil alone = control, 30 min, room temperature
Experimental: as §1, §2, §3, §4

[6] = Amount going into solution in 6 mL H2O after the preparation procedure (0.45 μm filtration, HPLC); format: physicochemical; details: control sample without PVP12, heating method, 20 mg 7-DAFSK
Experimental: For the complexation of 7-deacetyl-forskolin with PVP K12 (“Kollidon” 12 PF, Ph. Eur., USP, JP; BASF, average molar mass: about 2.5 kD), 20 mg of 7-DAFSK and 20 mg of PVP K12 were triturated in a porcelain crucible and 300 μL of ethanol was added and stirred. After 10 min, 100 μL of H2O was added, stirred, and allowed to stand again for 10 min. The solution was then heated to 140° C. in a drying oven within 40 min and left in it for a total of 45 min. After cooling, 3 mL of H2O was added and stirring was performed for 20-30 min. Then, the suspension was taken up with a syringe and filtered through 0.45 μm filter (hydrophilic). The crucible was rewashed with 3 mL H2O and the wash solution was also filtered through the filter. The content of 7-DAFSK dissolved in the 6 mL H2O was determined by HPLC. For the determination, the 7-DAFSK-PVP complex solution was diluted 1:10 with running medium. A mass fraction of 7-DAFSK in the total complex of 35 wt % was determined.
To optimize the content of 7-DAFSK in the total complex, the weight ratios of 7-DAFSK and PVP K12 used were varied (FIG. 3). […]
20 mg FSK and 40 mg PVP 25 were triturated in a porcelain crucible and 300 μL ethanol (alternatively propanol) was added and stirred. […] The content of FSK dissolved in the 6 mL H2O was determined by HPLC. A mass fraction of FSK in the total complex of <0.01 wt % was determined.

SMILES | activation of adenylyl cyclase ([3H]cAMP formation) [1] | activation of adenylyl cyclase ([3H]cAMP formation) [2] | water solubility [3] | solubility in water [4] | activation of adenylyl cyclase ([3H]cAMP formation) [5] | proportion of the 7-DAFSK used brought into solution [6] | solubility ([3]; 40 °C, thermodynamic from solid)
C=C[C@@]1(C)CC(=O)[C@]2(O)[C@@]3(C)[C@@H](O)CCC(C)(C)[C@@H]3[C@H](O)[C@H](O)[C@@]2(C)O1 [7-DAFSK, 7-deacetyl-forskolin] | enhanced activity | enhanced activity | 1000 µg/mL (≈ 2710 µM) | up to 1 mg/mL | enhanced activity | less than a quarter | 
C=C[C@@]1(C)CC(=O)[C@]2(O)[C@@]3(C)[C@@H](O)CCC(C)(C)[C@@H]3[C@H](O)[C@H](OC(C)=O)[C@@]2(C)O1 [FSK, forskolin] |  |  |  | 10 µg/mL (≈ 24.4 µM) |  |  | 10 µg/mL (≈ 24.4 µM)
CCCCC[C@H](O)CC[C@@H]1[C@H]2Cc3cccc(OCC(=O)O)c3C[C@H]2C[C@H]1O [Treprostinil, treprostinil] | no activation of AC | no activation of AC |  |  | no activation of AC |  | 
